Source: patent publication US20040106584A1, “Prophylactic docosahexaenoic acid therapy for patients with subclinical inflammation” (priority 2002, published 2004)

Tests used:
[1] = cited from earlier work
[2] = tested on: ADP-induced platelet aggregation; settings: oral loading dose of 300-600 mg; cited from earlier work
[3] = in vivo; cited from earlier work
obese diabetic mice = settings: 100 mg/kg body weight, but not normal or lean diabetic mice; cited from earlier work
C-reactive protein (CRP) = assay: Clinical study of DHASCO capsules co-administered with statin in dyslipidemia patients: CRP levels; type: in vivo, human; settings: 20 patients treated with DHA, 200 or 1000 mg daily
Experimental: In a clinical study DHASCO capsules (which contained DHA as a triglyceride oil extracted from Crypthecodinium cohnii cells, obtained from Martek Biosciences Corp., Columbia, Md.) were co-administered with statin medication to patients with dyslipidemia. Hyperlipidemic patients already being treated with a stable dose of a statin medication but still failing to meet NCEP guidelines for LDL-cholesterol or triglycerides were treated with either 200 or 1000 mg of DHA daily for 12 months. HbAlc levels (glycosylated hemoglobin, a marker of glycemic control) were measured in plasma at baseline and after 8 or 12 months of treatment.
Reduction in CRP of this extent is clinically significant, and may be correlated with a benefit of reduced risk of Type II diabetes onset, independent of other Type II risk factors.

[4] = target: T1, platelet glycoprotein IIb/IIa receptors (Homo sapiens, UniProt P05106+P08514); settings: cited from earlier work
T1 construct: host or cells: platelets in vivo (endogenous receptor)

With CC(=O)Oc1ccccc1C(=O)O [Aspirin, acetylsalicylic acid] as the molecule, how does the “reduction of the risk of serious vascular events” value ([1]; patients at high risk of such an event) read?
Its value is “about a quarter”.

With COC(=O)[C@H](c1ccccc1Cl)N1CCc2sccc2C1 [Clopidogrel] as the molecule, how does the “reduction of the risk of serious vascular events compared with aspirin” value ([1]; high-risk patients) read?
The value was “about 10%”.

What about the “time to detectable inhibition of ADP-induced platelet aggregation” value [2] of the same molecule?
Its value is 2 h.

And the “time to maximal inhibition of ADP-induced platelet aggregation” value [2]?
Its value is 6 h.

What about the “risk of skin rash and diarrhea compared with aspirin” value [3] of the same molecule?
Its value is “about a third”.

Which blood glucose (obese diabetic mice) does the source give for CC/C=C\C/C=C\C/C=C\C/C=C\C/C=C\C/C=C\CCC(=O)OCC [DHA ethyl ester] here?
Its blood glucose is “reduced”.

And the insulin sensitivity (obese diabetic mice)?
Its insulin sensitivity is “enhanced”.

And the plasma triglycerides (obese diabetic mice)?
The plasma triglycerides was “reduced”.

With CC/C=C\C/C=C\C/C=C\C/C=C\C/C=C\C/C=C\CCC(=O)O [DHA, docosahexaenoic acid] as the molecule, how does the “overall reduction in CRP level” value (C-reactive protein (CRP)) read?
The value was 15%.

Which “risk of skin rash and diarrhea compared with aspirin” value [3] does the source give for Clc1ccccc1CN1CCc2sccc2C1 [Ticlopidine] here?
Its value is “doubles”.

Which “persistent blockade of platelet glycoprotein IIb/IIa receptors” value ([4]; 24 hours after cessation of an infusion) does the source give for “abciximab: humanized mouse antibody fragment with a high binding affinity for the glycoprotein IIb/IIa receptor” here?
Its value is “more than 50%”.

And the “time to recovery of platelet function” value ([4]; after cessation of an infusion)?
Its value is 2 days.
